Measured values: patent US6372297B1, “Wood preservative oxathiazines” (Uniroyal Chemical Company, Inc., priority 1993, dated 2002)

Columns and labels:
Trichoderma viride = assay: Control of molds and blue stain fungi in stick test (beech sticks); settings: minimum concentration producing a score less than or equal to 1; dosages 250-5000 ppm
Experimental: (§1) The compounds shown in Table 1 were dissolved in 50% ethanol and a dilution series was made using the same solvent. In 25 ml of each dilution, one oven-dried beech stick (73×18×2 mm) was drenched until saturated.
(§2) Test dosages were 50, 100, 250, 500, and 1000 ppm for blue stain fungi which were Aureobasidium pullulans and Sclerophoma pithyophila. Test dosages for the molds used (Trichoderma viride, Aspergillus niger) were 250, 500, 1000, 2500, and 5000 ppm.
(§3) After three hours the test solution was poured off and each stick was allowed to dry in a sterile laminar air flow. In each Petri dish one stick was placed on malt agar previously seeded with inoculum. Two drops of fungal or spore suspension were pipetted on the upper surface of the stick. The Petri dishes were then incubated at 22° C. and 90% relative humidity. The treated sticks were evaluated after sufficient growth of the fungus on the untreated control sticks. The following score system was used to rate the effectiveness of the compounds:
(§4) 0=stick free of fungal growth
(§5) 1=traces of fungal growth on stick
(§6) 2=slight fungal growth (5 to 25% of the surface covered)
(§7) 3=moderate fungal growth (25 to 50% of the surface covered)
(§8) 4=vigorous fungal growth (greater than 50% of the surface covered).
(§9) For purposes of comparison of these compounds, these values were converted to threshold ranges. The threshold value in this system is defined as the minimum concentration of a particular compound which produces a score less than or equal to 1.

Aspergillus niger = assay: as above; settings: minimum concentration producing a score less than or equal to 1; dosages 250-5000 ppm
Experimental: as §1, §2, §3, §4, §5, §6, §7, §8, §9

Aureobasidium pullulans = assay: as above; settings: minimum concentration producing a score less than or equal to 1; dosages 50-1000 ppm
Experimental: as §1, §2, §3, §4, §5, §6, §7, §8, §9

Sclerophoma pithyophila = assay: as above; settings: minimum concentration producing a score less than or equal to 1; dosages 50-1000 ppm
Experimental: as §1, §2, §3, §4, §5, §6, §7, §8, §9

Coriolus versicolor = assay: Activity against wood-rotting fungi, weight loss of impregnated wood blocks; settings: eight weeks at 22° C. and 70% relative humidity
Experimental: (§10) Sapwood blocks (50×20×6 mm) of Scots pine (Pinus sylvestris) and beech (Fagus sylvatica) were oven-dried at 104° C. The blocks were cooled, weighed, and impregnated with the test compound, by a vacuum treatment. Each concentration of the test compounds was applied to 7 replicates. By reweighing after each treatment, the uptake of active ingredient was calculated. Badly treated wood was discarded. For fixation of the active compound, the treated blocks were kept in a closed container for two weeks. The container was opened and the wood was dried for two more weeks. The test blocks were sterilized by gamma-irradiation (1.2 Mrad). Each treated block was placed on a mesh in an inoculated Petri dishes of malt agar, with an untreated (control) block. All the blocks were exposed to fungal attack for eight weeks at 22° C. and 70% relative humidity. At the end of the incubation period, the blocks were freed from adhering mycelium, oven dried at 104° C., allowed to cool, and weighed. The percentage weight loss of each block was calculated. Invalid results, due to waterlogging or insufficient moisture content, were not taken into account. The average weight loss of the treated blocks compared to the control blocks appears in Table 8.

Coniophora puteana = assay: as above; settings: eight weeks at 22° C. and 70% relative humidity
Experimental: as §10

[1] = system: blue-stain fungi and molds; assay: Activity against blue-stain fungi and molds in a stick test (threshold concentrations); settings: beech sticks, 22° C., 90% relative humidity; for Threshold concentration (ppm), A. niger, score 0 / Threshold concentration (ppm), Aureobasidium, score 0 / Threshold concentration (ppm), Sclerophoma, score 0 / Threshold concentration (ppm), Trichoderma, score 0: minimum concentration to obtain score 0; for Threshold concentration (ppm), A. niger, score 1-2 / Threshold concentration (ppm), Aureobasidium, score 1-2 / Threshold concentration (ppm), Sclerophoma, score 1-2 / Threshold concentration (ppm), Trichoderma, score 1-2: minimum concentration to obtain score 1-2
Method in brief: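 Wood sticks soaked 3 h in compound serially diluted in 50% ethanol, dried, then inoculated with fungal or spore suspension. Incubated at 22° C and 90% relative humidity until untreated controls grew, then growth scored 0 (none) to 4 (>50% surface covered).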

[2] = system: mixed spore suspension: Aureobasidium pullulans, Aspergillus amstelodami, Ceratocystis pilifera, Cladosporium sp., Penicillium sp., Sclerophomas entoxylina …; assay: Control of molds and sapstain fungi in mini-board test; set-up: key to Surface score of treated mini-boards, 3 week incubation, 1500 ppm / Surface score of treated mini-boards, 3 week incubation, 2500 ppm: 0: Free of fungal growth; 1: Traces of fungal growth; 2: Little fungal growth; 3: Moderate fungal growth; 4: Vigorous to maximum growth (all surfaces covered with fungal growth)
[3] = higher treatment level, uptake 1136-1222 g.a.i./m3, control blocks lost 26-44%
[4] = lower treatment level, uptake 450-496 g.a.i./m3, control blocks lost 29-38%
[5] = higher treatment level, uptake 1271-1534 g.a.i./m3, control blocks lost 20-37%
[6] = lower treatment level, uptake 526-582 g.a.i./m3, control blocks lost 17-42%

SMILES | Threshold value in stick test, TRICHODERMA VIRIDE (Trichoderma viride) | Threshold value in stick test, A[…] (Aspergillus niger) | Threshold value in stick test, AUREOBASIDIUM PULLULANS (Aureobasidium pullulans) | Threshold value in stick test, SCLEROPHOMA PYTHIOPHILA (Sclerophoma pithyophila) | % weight loss, treated blocks (Coriolus) (Coriolus versicolor; [3]) [%] | % weight loss, treated blocks (Coriolus) (Coriolus versicolor; [4]) [%] | % weight loss, treated blocks (Coniophora) (Coniophora puteana; [5]) [%] | % weight loss, treated blocks (Coniophora) (Coniophora puteana; [6]) [%] | Threshold concentration (ppm), A. niger, score 0 [1] [ppm] | Threshold concentration (ppm), A. niger, score 1-2 [1] | Threshold concentration (ppm), Aureobasidium, score 0 [1] [ppm] | Threshold concentration (ppm), Aureobasidium, score 1-2 [1] | Threshold concentration (ppm), Sclerophoma, score 0 [1] [ppm] | Threshold concentration (ppm), Sclerophoma, score 1-2 [1] | Threshold concentration (ppm), Trichoderma, score 0 [1] [ppm] | Threshold concentration (ppm), Trichoderma, score 1-2 [1] | Surface score of treated mini-boards, 3 week incubation, 1500 ppm [2] | Surface score of treated mini-boards, 6 week incubation, 1500 ppm [2] | Surface score of treated mini-boards, 3 week incubation, 2500 ppm [2] | Surface score of treated mini-boards, 6 week incubation, 2500 ppm [2]
C[S+]1CCON=C1c1ccc(Cl)cc1 (stereo not drawn) [Compound 1] | 2500-5000 ppm | 1000-2500 ppm | >1000 ppm | 100-250 ppm |  |  |  |  |  |  |  |  |  |  |  |  |  |  |  | 
[O-][S+]1CCON=C1c1ccc(Cl)c(Cl)c1 (stereo not drawn) [Compound 4] | 500-1000 ppm | 250-500 ppm | 500-1000 ppm | 50-100 ppm | 35 | 35 | 0.3 | 0.3 |  |  |  |  |  |  |  |  |  |  |  | 
[O-][S+]1CCON=C1c1cccs1 (stereo not drawn) [Compound 8] | 500-1000 ppm | 250-500 ppm | 250-500 ppm | 50-100 ppm | 3.5 | 24 | 0.7 | 0.9 | 1000 | 250-500 ppm | >1000 | 250-500 ppm | 100 | 50-100 ppm | 1000 | 500-1000 ppm | 0 | 0.8 | 0 | 0.4
C[S+]1CCON=C1c1cc(Cl)cc(Cl)c1 (stereo not drawn) [Compound 19] | <250 ppm | 250-500 ppm | 250-500 ppm | 250-500 ppm | 87 | 35 | −0.3 | 0.9 |  |  |  |  |  |  |  |  |  |  |  | 
C[S+]1CCON=C1c1ccc(C(F)(F)F)cc1 (stereo not drawn) [Compound 25] | <250 ppm | <250 ppm | 250-500 ppm | 50-100 ppm | 21 | 37 | −0.8 | −0.7 |  |  |  |  |  |  |  |  |  |  |  | 
O=S1(=O)CCON=C1c1cccs1 [Compound 34] |  |  |  |  |  |  |  |  | 500 | <250 ppm | >1000 | 250-500 ppm | 100 | <50 ppm | 2500 | 500-1000 ppm | 0 | 2.4 | 0 | 2.4
